Tests used:
Type in all cases: functional
[1] = system: Staphylococcus haemolyticus; test: Antibaterial activity against Staphylococcus haemolyticus assessed as lowest dose required to total inhibition of bacterial growth
Candida tropicalis = test: Antifungal activity against Candida tropicalis assessed as lowest dose required to total inhibition of fungal growth
Phialophora verrucosa = test: Antifungal activity against Phialophora verrucosa assessed as lowest dose required to total inhibition of fungal growth
Aspergillus fumigatus = test: Antifungal activity against Aspergillus fumigatus assessed as lowest dose required to total inhibition of fungal growth
Candida albicans = test: Antifungal activity against Candida albicans assessed as lowest dose required to total inhibition of fungal growth
Cryptococcus neoformans = test: Antifungal activity against Cryptococcus neoformans assessed as lowest dose required to total inhibition of fungal growth
Microsporum canis = test: Antifungal activity against Microsporum canis assessed as lowest dose required to total inhibition of fungal growth
Mucor = test: Antifungal activity against Mucor species assessed as lowest dose required to total inhibition of fungal growth
Trichophyton rubrum = test: Antifungal activity against Trichophyton rubrum assessed as lowest dose required to total inhibition of fungal growth
[2] = system: Erysipelothrix rhusiopathiae; test: Antibaterial activity against Erysipelothrix insidiosa assessed as lowest dose required to total inhibition of bacterial growth
Saprolegnia = test: Antifungal activity against Saprolegnia species assessed as lowest dose required to total inhibition of fungal growth
Sporothrix schenckii = test: Antifungal activity against Sporothrix schenckii assessed as lowest dose required to total inhibition of fungal growth
[3] = system: Trichophyton mentagrophytes; test: Antifungal activity against Trichophyton mentagrophytes assessed as lowest dose required to total inhibition of fungal growth
Streptococcus pyogenes = test: Antibaterial activity against Streptococcus pyogenes assessed as lowest dose required to total inhibition of bacterial growth

Fc1ccc(OCCCC(Cn2ccnc2)c2ccc(Cl)cc2Cl)cc1.O=C(O)C(=O)O (stereo not drawn)
GI [1]: 10 µg/mL
GI (Candida tropicalis): >100 µg/mL
GI (Phialophora verrucosa): 100 µg/mL
GI (Aspergillus fumigatus): 100 µg/mL
GI (Candida albicans): >100 µg/mL
GI (Cryptococcus neoformans): <1 µg/mL
GI (Microsporum canis): <1 µg/mL
GI (Mucor): >100 µg/mL
GI (Trichophyton rubrum): <1 µg/mL
GI [2]: 1 µg/mL
GI (Saprolegnia): 10 µg/mL
GI (Sporothrix schenckii): <1 µg/mL
GI [3]: <1 µg/mL
GI (Streptococcus pyogenes): 1 µg/mL

Clc1ccc(C(CCOc2ccc(Br)cc2)Cn2ccnc2)c(Cl)c1.O=[N+]([O-])O (stereo not drawn)
GI [1]: 100 µg/mL
GI (Candida tropicalis): 100 µg/mL
GI (Phialophora verrucosa): <10 µg/mL
GI (Aspergillus fumigatus): 100 µg/mL
GI (Candida albicans): <10 µg/mL
GI (Cryptococcus neoformans): <10 µg/mL
GI (Microsporum canis): <10 µg/mL
GI (Mucor): 100 µg/mL
GI (Trichophyton rubrum): <10 µg/mL
GI [2]: <10 µg/mL
GI (Saprolegnia): <10 µg/mL
GI (Sporothrix schenckii): <10 µg/mL
GI [3]: <10 µg/mL
GI (Streptococcus pyogenes): <10 µg/mL

Clc1ccc(OCC(Cn2ccnc2)c2ccc(Cl)cc2)cc1.O=[N+]([O-])O (stereo not drawn)
GI [1]: 10 µg/mL
GI (Candida tropicalis): >100 µg/mL
GI (Phialophora verrucosa): 100 µg/mL
GI (Aspergillus fumigatus): 100 µg/mL
GI (Candida albicans): >100 µg/mL
GI (Cryptococcus neoformans): <1 µg/mL
GI (Microsporum canis): <1 µg/mL
GI (Mucor): 10 µg/mL
GI (Trichophyton rubrum): <1 µg/mL
GI [2]: 1 µg/mL
GI (Saprolegnia): 100 µg/mL
GI (Sporothrix schenckii): 10 µg/mL
GI [3]: <1 µg/mL
GI (Streptococcus pyogenes): <1 µg/mL

Clc1ccc(OCC(Cn2ccnc2)c2ccc(Cl)cc2Cl)cc1.O=[N+]([O-])O (stereo not drawn)
GI [1]: 10 µg/mL
GI (Candida tropicalis): >100 µg/mL
GI (Phialophora verrucosa): 10 µg/mL
GI (Aspergillus fumigatus): 10 µg/mL
GI (Candida albicans): 10 µg/mL
GI (Cryptococcus neoformans): <1 µg/mL
GI (Microsporum canis): 10 µg/mL
GI (Mucor): 100 µg/mL
GI (Trichophyton rubrum): <1 µg/mL
GI [2]: <1 µg/mL
GI (Saprolegnia): 100 µg/mL
GI (Sporothrix schenckii): 10 µg/mL
GI [3]: <1 µg/mL
GI (Streptococcus pyogenes): <1 µg/mL

COc1ccc(OCCCC(Cn2ccnc2)c2ccc(Cl)cc2Cl)cc1.O=C(O)C(=O)O (stereo not drawn)
GI [1]: 100 µg/mL
GI (Candida tropicalis): >100 µg/mL
GI (Phialophora verrucosa): 10 µg/mL
GI (Aspergillus fumigatus): 10 µg/mL
GI (Candida albicans): 10 µg/mL
GI (Cryptococcus neoformans): <1 µg/mL
GI (Microsporum canis): 10 µg/mL
GI (Mucor): 100 µg/mL
GI (Trichophyton rubrum): <1 µg/mL
GI [2]: <1 µg/mL
GI (Saprolegnia): <1 µg/mL
GI (Sporothrix schenckii): <1 µg/mL
GI [3]: <1 µg/mL
GI (Streptococcus pyogenes): <1 µg/mL

Clc1ccc(OCC(Cn2ccnc2)c2ccc(Br)cc2)cc1.O=[N+]([O-])O (stereo not drawn)
GI [1]: 10 µg/mL
GI (Candida tropicalis): >100 µg/mL
GI (Phialophora verrucosa): 100 µg/mL
GI (Aspergillus fumigatus): 100 µg/mL
GI (Candida albicans): 100 µg/mL
GI (Cryptococcus neoformans): 10 µg/mL
GI (Microsporum canis): 10 µg/mL
GI (Mucor): >100 µg/mL
GI (Trichophyton rubrum): <1 µg/mL
GI [2]: <1 µg/mL
GI (Saprolegnia): >100 µg/mL
GI (Sporothrix schenckii): 10 µg/mL
GI [3]: <1 µg/mL
GI (Streptococcus pyogenes): <1 µg/mL

Clc1ccc(OCC(Cn2ccnc2)c2ccc(Cl)cc2Cl)c(Cl)c1.O=[N+]([O-])O (stereo not drawn)
GI [1]: 1 µg/mL
GI (Candida tropicalis): >100 µg/mL
GI (Phialophora verrucosa): 100 µg/mL
GI (Aspergillus fumigatus): >100 µg/mL
GI (Candida albicans): >100 µg/mL
GI (Cryptococcus neoformans): <1 µg/mL
GI (Microsporum canis): <1 µg/mL
GI (Mucor): >100 µg/mL
GI (Trichophyton rubrum): <1 µg/mL
GI [2]: <1 µg/mL
GI (Saprolegnia): >100 µg/mL
GI (Sporothrix schenckii): <1 µg/mL
GI [3]: <1 µg/mL
GI (Streptococcus pyogenes): <1 µg/mL

COc1ccc(OCCC(Cn2ccnc2)c2ccc(Cl)cc2Cl)cc1.O=[N+]([O-])O (stereo not drawn)
GI [1]: 10 µg/mL
GI (Candida tropicalis): >100 µg/mL
GI (Phialophora verrucosa): 10 µg/mL
GI (Aspergillus fumigatus): 100 µg/mL
GI (Candida albicans): 100 µg/mL
GI (Cryptococcus neoformans): <1 µg/mL
GI (Microsporum canis): 10 µg/mL
GI (Mucor): 100 µg/mL
GI (Trichophyton rubrum): <1 µg/mL
GI [2]: <1 µg/mL
GI (Saprolegnia): <1 µg/mL
GI (Sporothrix schenckii): 10 µg/mL
GI [3]: <1 µg/mL
GI (Streptococcus pyogenes): <1 µg/mL

Clc1ccc(C(COc2ccc(Cl)cc2Cl)Cn2ccnc2)cc1.O=[N+]([O-])O (stereo not drawn)
GI [1]: 10 µg/mL
GI (Candida tropicalis): >100 µg/mL
GI (Phialophora verrucosa): 100 µg/mL
GI (Aspergillus fumigatus): 100 µg/mL
GI (Candida albicans): 10 µg/mL
GI (Cryptococcus neoformans): <1 µg/mL
GI (Microsporum canis): 10 µg/mL
GI (Mucor): >100 µg/mL
GI (Trichophyton rubrum): <1 µg/mL
GI [2]: 1 µg/mL
GI (Saprolegnia): >100 µg/mL
GI (Sporothrix schenckii): 10 µg/mL
GI [3]: <1 µg/mL
GI (Streptococcus pyogenes): <1 µg/mL

Clc1ccc(C(COc2ccccc2Cl)Cn2ccnc2)cc1.O=[N+]([O-])O (stereo not drawn)
GI [1]: 10 µg/mL
GI (Candida tropicalis): >100 µg/mL
GI (Phialophora verrucosa): >100 µg/mL
GI (Aspergillus fumigatus): >100 µg/mL
GI (Candida albicans): 100 µg/mL
GI (Cryptococcus neoformans): <1 µg/mL
GI (Microsporum canis): 100 µg/mL
GI (Mucor): 100 µg/mL
GI (Trichophyton rubrum): 10 µg/mL
GI [2]: 1 µg/mL
GI (Saprolegnia): >100 µg/mL
GI (Sporothrix schenckii): 10 µg/mL
GI [3]: <1 µg/mL
GI (Streptococcus pyogenes): 1 µg/mL

Clc1ccc(C(COc2ccc(Br)cc2)Cn2ccnc2)c(Cl)c1.O=[N+]([O-])O (stereo not drawn)
GI [1]: 10 µg/mL
GI (Candida tropicalis): >100 µg/mL
GI (Phialophora verrucosa): 100 µg/mL
GI (Aspergillus fumigatus): 100 µg/mL
GI (Candida albicans): 100 µg/mL
GI (Cryptococcus neoformans): <1 µg/mL
GI (Microsporum canis): <1 µg/mL
GI (Mucor): 100 µg/mL
GI (Trichophyton rubrum): <1 µg/mL
GI [2]: <1 µg/mL
GI (Saprolegnia): 100 µg/mL
GI (Sporothrix schenckii): 100 µg/mL
GI [3]: <1 µg/mL
GI (Streptococcus pyogenes): <1 µg/mL

Clc1ccc(C(CCCOc2ccccc2Br)Cn2ccnc2)c(Cl)c1.O=C(O)C(=O)O (stereo not drawn)
GI [1]: 10 µg/mL
GI (Candida tropicalis): >100 µg/mL
GI (Phialophora verrucosa): 100 µg/mL
GI (Aspergillus fumigatus): 100 µg/mL
GI (Candida albicans): 100 µg/mL
GI (Cryptococcus neoformans): <1 µg/mL
GI (Microsporum canis): <1 µg/mL
GI (Mucor): >100 µg/mL
GI (Trichophyton rubrum): <1 µg/mL
GI [2]: <1 µg/mL
GI (Saprolegnia): 100 µg/mL
GI (Sporothrix schenckii): 10 µg/mL
GI [3]: <1 µg/mL
GI (Streptococcus pyogenes): <1 µg/mL

Clc1ccc(OCCC(Cn2ccnc2)c2ccc(Cl)cc2Cl)cc1.O=[N+]([O-])O (stereo not drawn)
GI [1]: 1 µg/mL
GI (Candida tropicalis): >100 µg/mL
GI (Phialophora verrucosa): 100 µg/mL
GI (Aspergillus fumigatus): 100 µg/mL
GI (Candida albicans): 10 µg/mL
GI (Cryptococcus neoformans): <1 µg/mL
GI (Microsporum canis): 10 µg/mL
GI (Mucor): 10 µg/mL
GI (Trichophyton rubrum): <1 µg/mL
GI [2]: <1 µg/mL
GI (Saprolegnia): 10 µg/mL
GI (Sporothrix schenckii): 10 µg/mL
GI [3]: <1 µg/mL
GI (Streptococcus pyogenes): <1 µg/mL

Clc1ccc(COC(Cn2ccnc2)c2ccc(Cl)cc2Cl)c(Cl)c1 (stereo not drawn) [MICONAZOLE]
GI [1]: 10 µg/mL
GI (Candida tropicalis): 100 µg/mL
GI (Phialophora verrucosa): 100 µg/mL
GI (Aspergillus fumigatus): 10 µg/mL
GI (Candida albicans): 10 µg/mL
GI (Cryptococcus neoformans): 1 µg/mL
GI (Microsporum canis): 1 µg/mL
GI (Mucor): >100 µg/mL
GI (Trichophyton rubrum): <1 µg/mL
GI [2]: <1 µg/mL
GI (Saprolegnia): 10 µg/mL
GI (Sporothrix schenckii): 1 µg/mL
GI [3]: <1 µg/mL
GI (Streptococcus pyogenes): <1 µg/mL

Clc1ccc(C(CCOc2ccccc2Br)Cn2ccnc2)c(Cl)c1.O=C(O)C(=O)O (stereo not drawn)
GI [1]: 10 µg/mL
GI (Candida tropicalis): >100 µg/mL
GI (Phialophora verrucosa): 100 µg/mL
GI (Aspergillus fumigatus): >100 µg/mL
GI (Candida albicans): >100 µg/mL
GI (Cryptococcus neoformans): <1 µg/mL
GI (Microsporum canis): 100 µg/mL
GI (Mucor): >100 µg/mL
GI (Trichophyton rubrum): <1 µg/mL
GI [2]: <1 µg/mL
GI (Saprolegnia): 100 µg/mL
GI (Sporothrix schenckii): 10 µg/mL
GI [3]: <1 µg/mL
GI (Streptococcus pyogenes): <1 µg/mL

Clc1ccc(C(CCCOc2ccccc2)Cn2ccnc2)c(Cl)c1.O=C(O)C(=O)O (stereo not drawn)
GI [1]: 10 µg/mL
GI (Candida tropicalis): >100 µg/mL
GI (Phialophora verrucosa): 10 µg/mL
GI (Aspergillus fumigatus): 10 µg/mL
GI (Candida albicans): >100 µg/mL
GI (Cryptococcus neoformans): <1 µg/mL
GI (Microsporum canis): 10 µg/mL
GI (Mucor): >100 µg/mL
GI (Trichophyton rubrum): <1 µg/mL
GI [2]: <1 µg/mL
GI (Saprolegnia): 10 µg/mL
GI (Sporothrix schenckii): <1 µg/mL
GI [3]: <1 µg/mL
GI (Streptococcus pyogenes): <1 µg/mL

Clc1ccc(C(COc2ccccc2Cl)Cn2ccnc2)c(Cl)c1.O=[N+]([O-])O (stereo not drawn)
GI [1]: 1 µg/mL
GI (Candida tropicalis): >100 µg/mL
GI (Phialophora verrucosa): 100 µg/mL
GI (Aspergillus fumigatus): 100 µg/mL
GI (Candida albicans): 100 µg/mL
GI (Cryptococcus neoformans): <1 µg/mL
GI (Microsporum canis): 10 µg/mL
GI (Mucor): >100 µg/mL
GI (Trichophyton rubrum): <1 µg/mL
GI [2]: <1 µg/mL
GI (Saprolegnia): 100 µg/mL
GI (Sporothrix schenckii): 10 µg/mL
GI [3]: <1 µg/mL
GI (Streptococcus pyogenes): <1 µg/mL

Source: ChEMBL document CHEMBL3272010, “Antimycotic imidazoles. 3. Synthesis and antimycotic properties of 1-[2-(aryloxyalkyl)-2-phenylethyl]-1H-imidazoles” (1977)
